Article PMC9122626 (2020)

Key:
[1] = system: human telomeric G4 DNA, dAGGG(TTAGGG)3 (DNA, G4) AGGGTTAGGGTTAGGGTTAGGG; experiment: EMSA; settings: 30 μM G4; room temperature; up to 120 μM peptide
[2] = system: human telomeric G4 DNA, dAGGG(TTAGGG)3 (DNA, G4) AGGGTTAGGGTTAGGGTTAGGG; experiment: CD melting (295 nm); settings: Na+ 100 mM; peptide concentration not given
[3] = system: human telomeric G4 DNA, dAGGG(TTAGGG)3 (DNA, G4) AGGGTTAGGGTTAGGGTTAGGG; experiment: thiazole orange displacement (fluorescence); settings: 298 K; at ~8.4 μM peptide; thiazole orange displaced; 0.25 μM G4, 0.50 μM TO
[4] = system: human telomeric G4 DNA, dAGGG(TTAGGG)3 (DNA, G4) AGGGTTAGGGTTAGGGTTAGGG; experiment: ITC; settings: 298.15 K; 64 μM DNA in cell, 700 μM peptide in syringe
[5] = system: ds26 (DNA, duplex) CAATCGGATCGAATTCGATCCGATTG; experiment: ITC; settings: Na+ 100 mM

With `CC(C)[C@H](N)C(=O)N[C@@H](CCC(=O)N[C@@H](CCC(=O)O)C(=O)O)C(=O)N[C@@H](CCC(=O)O)C(=O)O` (racemic) the binding [1] was “no”, the Tm [2] was ~ -1 °C and the “% TO displacement” value [3] was ~ 6.5%. For the same compound, the binding [4] was “no” and the Ka [5] was 3360 M⁻¹.
